Laboratory results taken from US20250223303A1, “TRICYCLIC BORONIC ACID DERIVATIVE, AND PREPARATION METHOD THEREFOR AND APPLICATION THEREOF” (priority 2021, published 2025).

Key:
[1] = tested on: Escherichia coli ARLG 2829; assay: MIC test of compounds in combination with antibiotics, Escherichia coli ARLG 2829; settings: for MIC of biapenem in combination with compound, Escherichia coli ARLG-2829 NDM-5, OXA-1: Biapenem + compound (8 μg/mL); for MIC of meropenem in combination with compound, Escherichia coli ARLG-2829 NDM-5, OXA-1: Meropenem + compound (8 μg/mL)
[2] = tested on: Klebsiella pneumoniae ARLG 1196; assay: MIC test of compounds in combination with antibiotics, Klebsiella pneumoniae ARLG 1196; settings: for MIC of biapenem in combination with compound, Klebsiella pneumoniae ARLG-1196 CTM-1 group, SHV, NDM, TEM: Biapenem + compound (8 μg/mL); for MIC of meropenem in combination with compound, Klebsiella pneumoniae ARLG-1196 CTM-1 group, SHV, NDM, TEM: Meropenem + compound (8 μg/mL)
[3] = tested on: Klebsiella pneumoniae ATCC BAA-2470; assay: MIC test of compounds in combination with antibiotics, Klebsiella pneumoniae ATCC BAA-2470; settings: for MIC of biapenem in combination with compound, Klebsiella pneumoniae ATCC BAA-2470 NDM-1: Biapenem + compound (8 μg/mL); for MIC of meropenem in combination with compound, Klebsiella pneumoniae ATCC BAA-2470 NDM-1: Meropenem + compound (8 μg/mL)
[4] = tested on: Klebsiella pneumoniae ATCC BAA-1705; assay: MIC test of compounds in combination with antibiotics, Klebsiella pneumoniae ATCC BAA-1705; settings: for MIC of biapenem in combination with compound, Klebsiella pneumoniae ATCC BAA-1705 KPC-2: Biapenem + compound (8 μg/mL); for MIC of meropenem in combination with compound, Klebsiella pneumoniae ATCC BAA-1705 KPC-2: Meropenem + compound (8 μg/mL)
[5] = tested on: Acinetobacter baumannii WX-AB005; assay: MIC test of compounds in combination with antibiotics, Acinetobacter baumannii WX-AB005; settings: for MIC of biapenem in combination with compound, Acinetobacter baumannii WX-AB005: Biapenem + compound (8 μg/mL); for MIC of meropenem in combination with compound, Acinetobacter baumannii WX-AB005: Meropenem + compound (8 μg/mL)
Description: (§1) 2-Fold gradient dilution of antibiotics: 300 μL of CAMHVIB medium was added to columns 2-12 of a 96-deep well plate. In column 1, 24 μL of antibiotic stock solution and 576 µL of CAMHB medium were added and mixed well, with a concentration of 512 μg/mL. 300 µL of antibiotic solution was transferred from the column 1 to the second column and mixed well. The process was repeated until column 11, and the column 12 was a blank control.
(§2) Dilution of combined compounds: the compound was diluted 400-fold to 32 μg/ml with CAMHB medium.
(§3) Working solution aliquoting: 25 μL of antibiotics was aliquoted into the 96-U bottom plate with a pipette, and 25 μL of combined compound was added to each well. If antibiotics were used alone, 25 μL of CAMHB medium was added.
(§4) Inoculum solution preparation: 5-6 single colonies were selected from the plate and suspended in normal saline. The bacterial suspension was adjusted to 0.2 (i.e., 0.5 McFarland turbidity, with a bacterial concentration was about 1 to 2×10^8 CFU/mL) with a turbidity meter. The bacterial suspension was diluted 100-fold with CAMHB medium for later use.
(§5) Inoculation: 50 μL of inoculum solution was transferred to the above 50 μL compound plate with a pipette.
(§6) Culture: The 96-U bottom plate was placed in an incubator at 37° C. for 18 to 20 h.

[6] = tested on: Acinetobacter baumannii WX-AB013; assay: MIC test of compounds in combination with antibiotics, Acinetobacter baumannii WX-AB013; settings: for MIC of biapenem in combination with compound, Acinetobacter baumannii WX-AB013: Biapenem + compound (8 μg/mL); for MIC of meropenem in combination with compound, Acinetobacter baumannii WX-AB013: Meropenem + compound (8 μg/mL)
Description: as §1, §2, §3, §4, §5, §6

[7] = tested on: Acinetobacter baumannii ARLG-1791 OXA-23; assay: MIC test of compounds in combination with antibiotics, Acinetobacter baumannii ARLG-1791; settings: for MIC of biapenem in combination with compound, Acinetobacter baumannii ARLG-1791 OXA-23: Biapenem + compound (8 μg/mL); for MIC of meropenem in combination with compound, Acinetobacter baumannii ARLG-1791 OXA-23: Meropenem + compound (8 μg/mL)
Description: as §1, §2, §3, §4, §5, §6

[8] = tested on: Acinetobacter baumannii ARLG-1809 OXA-23; assay: MIC test of compounds in combination with antibiotics, Acinetobacter baumannii ARLG-1809; settings: for MIC of biapenem in combination with compound, Acinetobacter baumannii ARLG-1809 OXA-23: Biapenem + compound (8 μg/mL); for MIC of meropenem in combination with compound, Acinetobacter baumannii ARLG-1809 OXA-23: Meropenem + compound (8 μg/mL)
Description: as §1, §2, §3, §4, §5, §6

[9] = tested on: Acinetobacter baumannii ARLG-1852 OXA-23; assay: MIC test of compounds in combination with antibiotics, Acinetobacter baumannii ARLG-1852; settings: for MIC of biapenem in combination with compound, Acinetobacter baumannii ARLG-1852 OXA-23: Biapenem + compound (8 μg/mL); for MIC of meropenem in combination with compound, Acinetobacter baumannii ARLG-1852 OXA-23: Meropenem + compound (8 μg/mL)
Description: as §1, §2, §3, §4, §5, §6

[10] = tested on: Acinetobacter baumannii ARLG-1853 OXA-23; assay: MIC test of compounds in combination with antibiotics, Acinetobacter baumannii ARLG-1853; settings: for MIC of biapenem in combination with compound, Acinetobacter baumannii ARLG-1853 OXA-23: Biapenem + compound (8 μg/mL); for MIC of meropenem in combination with compound, Acinetobacter baumannii ARLG-1853 OXA-23: Meropenem + compound (8 μg/mL)
Description: as §1, §2, §3, §4, §5, §6

C[C@H](Sc1ccc2c(c1C(=O)O)OB(O)[C@@H]1C[C@H]21)[C@@H]1CCCO1 [Compound 18-a]
MIC of biapenem in combination with compound, Escherichia coli ARLG-2829 NDM-5, OXA-1 [1]: ≤0.125 µg/mL
MIC of meropenem in combination with compound, Escherichia coli ARLG-2829 NDM-5, OXA-1 [1]: 2 µg/mL
MIC of biapenem in combination with compound, Klebsiella pneumoniae ARLG-1196 CTM-1 group, SHV, NDM, TEM [2]: ≤0.125 µg/mL
MIC of meropenem in combination with compound, Klebsiella pneumoniae ARLG-1196 CTM-1 group, SHV, NDM, TEM [2]: 2 µg/mL
MIC of biapenem in combination with compound, Klebsiella pneumoniae ATCC BAA-2470 NDM-1 [3]: 0.5 µg/mL
MIC of meropenem in combination with compound, Klebsiella pneumoniae ATCC BAA-2470 NDM-1 [3]: 8 µg/mL
MIC of biapenem in combination with compound, Klebsiella pneumoniae ATCC BAA-1705 KPC-2 [4]: 0.5 µg/mL
MIC of meropenem in combination with compound, Klebsiella pneumoniae ATCC BAA-1705 KPC-2 [4]: 1 µg/mL
MIC of biapenem in combination with compound, Acinetobacter baumannii WX-AB005 [5]: 4 µg/mL
MIC of meropenem in combination with compound, Acinetobacter baumannii WX-AB005 [5]: 8 µg/mL
MIC of biapenem in combination with compound, Acinetobacter baumannii WX-AB013 [6]: 0.5 µg/mL
MIC of meropenem in combination with compound, Acinetobacter baumannii WX-AB013 [6]: 4 µg/mL
MIC of biapenem in combination with compound, Acinetobacter baumannii ARLG-1791 OXA-23 [7]: 0.5 µg/mL
MIC of meropenem in combination with compound, Acinetobacter baumannii ARLG-1791 OXA-23 [7]: 8 µg/mL
MIC of biapenem in combination with compound, Acinetobacter baumannii ARLG-1809 OXA-23 [8]: 2 µg/mL
MIC of meropenem in combination with compound, Acinetobacter baumannii ARLG-1809 OXA-23 [8]: 4 µg/mL
MIC of biapenem in combination with compound, Acinetobacter baumannii ARLG-1852 OXA-23 [9]: 0.5 µg/mL
MIC of meropenem in combination with compound, Acinetobacter baumannii ARLG-1852 OXA-23 [9]: 2 µg/mL
MIC of biapenem in combination with compound, Acinetobacter baumannii ARLG-1853 OXA-23 [10]: 0.5 µg/mL
MIC of meropenem in combination with compound, Acinetobacter baumannii ARLG-1853 OXA-23 [10]: 2 µg/mL

C[C@@H](Sc1ccc2c(c1C(=O)O)OB(O)[C@H]1C[C@@H]21)[C@@H]1CCCO1 [Compound 18-d]
MIC of biapenem in combination with compound, Escherichia coli ARLG-2829 NDM-5, OXA-1 [1]: 0.5 µg/mL
MIC of meropenem in combination with compound, Escherichia coli ARLG-2829 NDM-5, OXA-1 [1]: 8 µg/mL
MIC of biapenem in combination with compound, Klebsiella pneumoniae ARLG-1196 CTM-1 group, SHV, NDM, TEM [2]: ≤0.125 µg/mL
MIC of meropenem in combination with compound, Klebsiella pneumoniae ARLG-1196 CTM-1 group, SHV, NDM, TEM [2]: 4 µg/mL
MIC of biapenem in combination with compound, Klebsiella pneumoniae ATCC BAA-2470 NDM-1 [3]: 0.5 µg/mL
MIC of meropenem in combination with compound, Klebsiella pneumoniae ATCC BAA-2470 NDM-1 [3]: 16 µg/mL
MIC of biapenem in combination with compound, Klebsiella pneumoniae ATCC BAA-1705 KPC-2 [4]: 0.5 µg/mL
MIC of meropenem in combination with compound, Klebsiella pneumoniae ATCC BAA-1705 KPC-2 [4]: 0.5 µg/mL
MIC of biapenem in combination with compound, Acinetobacter baumannii WX-AB005 [5]: 4 µg/mL
MIC of meropenem in combination with compound, Acinetobacter baumannii WX-AB005 [5]: 8 µg/mL
MIC of biapenem in combination with compound, Acinetobacter baumannii WX-AB013 [6]: 1 µg/mL
MIC of meropenem in combination with compound, Acinetobacter baumannii WX-AB013 [6]: 4 µg/mL
MIC of biapenem in combination with compound, Acinetobacter baumannii ARLG-1791 OXA-23 [7]: 1 µg/mL
MIC of meropenem in combination with compound, Acinetobacter baumannii ARLG-1791 OXA-23 [7]: 8 µg/mL
MIC of biapenem in combination with compound, Acinetobacter baumannii ARLG-1809 OXA-23 [8]: 4 µg/mL
MIC of meropenem in combination with compound, Acinetobacter baumannii ARLG-1809 OXA-23 [8]: 8 µg/mL
MIC of biapenem in combination with compound, Acinetobacter baumannii ARLG-1852 OXA-23 [9]: 1 µg/mL
MIC of meropenem in combination with compound, Acinetobacter baumannii ARLG-1852 OXA-23 [9]: 8 µg/mL
MIC of biapenem in combination with compound, Acinetobacter baumannii ARLG-1853 OXA-23 [10]: 1 µg/mL
MIC of meropenem in combination with compound, Acinetobacter baumannii ARLG-1853 OXA-23 [10]: 4 µg/mL

C[C@H](Sc1ccc2c(c1C(=O)O)OB(O)[C@@H]1C[C@H]21)C1CN(C)C1 [Compound 20-a]
MIC of biapenem in combination with compound, Escherichia coli ARLG-2829 NDM-5, OXA-1 [1]: 0.25 µg/mL
MIC of meropenem in combination with compound, Escherichia coli ARLG-2829 NDM-5, OXA-1 [1]: 16 µg/mL
MIC of biapenem in combination with compound, Klebsiella pneumoniae ARLG-1196 CTM-1 group, SHV, NDM, TEM [2]: ≤0.125 µg/mL
MIC of meropenem in combination with compound, Klebsiella pneumoniae ARLG-1196 CTM-1 group, SHV, NDM, TEM [2]: 2 µg/mL
MIC of biapenem in combination with compound, Klebsiella pneumoniae ATCC BAA-2470 NDM-1 [3]: ≤0.125 µg/mL
MIC of meropenem in combination with compound, Klebsiella pneumoniae ATCC BAA-2470 NDM-1 [3]: 4 µg/mL
MIC of biapenem in combination with compound, Klebsiella pneumoniae ATCC BAA-1705 KPC-2 [4]: 0.5 µg/mL
MIC of meropenem in combination with compound, Klebsiella pneumoniae ATCC BAA-1705 KPC-2 [4]: ≤0.125 µg/mL
MIC of biapenem in combination with compound, Acinetobacter baumannii WX-AB005 [5]: 2 µg/mL
MIC of meropenem in combination with compound, Acinetobacter baumannii WX-AB005 [5]: 4 µg/mL
MIC of biapenem in combination with compound, Acinetobacter baumannii WX-AB013 [6]: 0.5 µg/mL
MIC of meropenem in combination with compound, Acinetobacter baumannii WX-AB013 [6]: 2 µg/mL
MIC of biapenem in combination with compound, Acinetobacter baumannii ARLG-1791 OXA-23 [7]: 0.25 µg/mL
MIC of meropenem in combination with compound, Acinetobacter baumannii ARLG-1791 OXA-23 [7]: 2 µg/mL
MIC of biapenem in combination with compound, Acinetobacter baumannii ARLG-1809 OXA-23 [8]: 0.5 µg/mL
MIC of meropenem in combination with compound, Acinetobacter baumannii ARLG-1809 OXA-23 [8]: 2 µg/mL
MIC of biapenem in combination with compound, Acinetobacter baumannii ARLG-1852 OXA-23 [9]: 0.25 µg/mL
MIC of meropenem in combination with compound, Acinetobacter baumannii ARLG-1852 OXA-23 [9]: 2 µg/mL
MIC of biapenem in combination with compound, Acinetobacter baumannii ARLG-1853 OXA-23 [10]: 0.25 µg/mL
MIC of meropenem in combination with compound, Acinetobacter baumannii ARLG-1853 OXA-23 [10]: 2 µg/mL
